According to US20040181130A1, “Methods for diagnosing skin lesions” (3M Innovative Properties Company, priority 2003, published 2004):

System: AK lesions
Experiment: Increase in AK lesion count during 16-week topical treatment of volunteers with AK lesions
Type: in vivo, human
Excerpt: Volunteers having from four to eight clinically diagnosed AK lesions located within a 25 cm^2 treatment area were enrolled in a study. The study consisted of a prestudy period, a 16-week treatment period, and an 8-week post treatment period. Enrolled participants were randomized to receive either 5% imiquimod cream (ALDARA, 3M Pharmaceuticals, St. Paul, Minn.) or placebo cream containing no biologically active ingredient.
Subjects were instructed to topically administer cream from a single-use sachet. Sachets that contained imiquimod contained 250 mg of cream. One group of subjects applied cream two days per week for sixteen weeks, with dosing days occurring a minimum of three days apart. A second group of subjects applied cream three days per week for sixteen weeks, with dosing days occurring at least two days apart.
At a pretreatment visit, a baseline AK lesion count was established for each subject. Updated AK lesion counts were calculated at visits after four weeks, eight weeks, and sixteen weeks of treatment. For each individual, “new” AK lesions were calculated as the difference between the updated AK count and the baseline AK count. Thus, subclinical AK lesions may become apparent after treatment with ALDARA cream.

[1] = 5% cream topical 2x/week, Any visit, N=215
[2] = 5% cream topical 2x/week, Week 4, N=215
[3] = 5% cream topical 2x/week, Week 8, N=215
[4] = 5% cream topical 2x/week, Week 16, N=215
[5] = 5% cream topical 3x/week, Any visit, N=242
[6] = 5% cream topical 3x/week, Week 4, N=242
[7] = 5% cream topical 3x/week, Week 8, N=242
[8] = 5% cream topical 3x/week, Week 16, N=242

## CC(C)Cn1cnc2c(N)nc3ccccc3c21 [Imiquimod, imiquimod]
[1]
  % of Subjects with an Increase in AK Lesion Count: 47.9%
  Number of Subjects with an Increase in AK Lesion Count: 103
[2]
  % of Subjects with an Increase in AK Lesion Count: 36.7%
  Number of Subjects with an Increase in AK Lesion Count: 79
[3]
  % of Subjects with an Increase in AK Lesion Count: 28.4%
  Number of Subjects with an Increase in AK Lesion Count: 61
[4]
  % of Subjects with an Increase in AK Lesion Count: 9.3%
  Number of Subjects with an Increase in AK Lesion Count: 20
[5]
  % of Subjects with an Increase in AK Lesion Count: 42.6%
  Number of Subjects with an Increase in AK Lesion Count: 103
[6]
  % of Subjects with an Increase in AK Lesion Count: 33.1%
  Number of Subjects with an Increase in AK Lesion Count: 80
[7]
  % of Subjects with an Increase in AK Lesion Count: 16.5%
  Number of Subjects with an Increase in AK Lesion Count: 40
[8]
  % of Subjects with an Increase in AK Lesion Count: 6.2%
  Number of Subjects with an Increase in AK Lesion Count: 15
